For 22 compounds, LD50 and inhibition results are on record in US4298739A, “Novel carbostyril derivatives” (priority 1977, dated 1981).

In general, LD50 refers to the dose expected to kill half of the subjects tested. What is called inhibition is the relative decrease from the control value, in per cent.

A short description of data set [1]: Acute toxicity test, oral administration to mice. The settings on record: mouse, in vivo, Male mice. Format: in vivo. The procedure: The test compounds were administered orally to the mice and LD50 (mg/kg) of the compounds was determined.
Data set [2] relates to rabbit platelet. Briefly: ADP-induced aggregation in rabbit platelets (AG-II Aggregometer). Format: cell-based. Set-up: inhibition: dose or concentration left out as unconfirmed. The settings on record: Oryctolagus cuniculus, Platelet, read-out: Inhibition effect on ADP-induced aggregation in rabbit platelet; for inhibition at 10 µM (stock): 10^-5 mole; for inhibition at 1 µM (stock): 10^-6 mole; for inhibition at 100 µM (stock): 10^-4 mole. The procedure:
(§1) The platelet aggregation inhibitory effect is measured by using AG-II Aggregometer (manufactured by Bryston Manufacturing Co.). The blood sample used for the test is a 1/9 (by volume) mixture of sodium citrate and whole blood collected from rabbit. Said sample is subjected to 10-minute centrifugal separation at 1,000 r.p.m. to obtain a platelet rich plasma (PRP). The thus obtained PRP is separated, and the remaining blood sample is further subjected to 15-minute centrifugal separation at 3,000 r.p.m. to obtain a platelet poor plasma (PPP).
(§2) The number of platelets in the PRP is counted by the Brecher-Clonkite Method, and the PRP is diluted with the PPP to prepare a PRP sample with platelet concentration of 300,000/mm^3 for the adenosine diphosphate (ADP)-induced aggregation test. There is also prepared a PRP sample with platelet concentration of 450,000/mm^3 for the collagen-induced aggregation test.
(§3) 0.6 ml of said PRP sample is added into 0.01 ml of a solution of a test compound of a predetermined concentration and the mixture is placed in a 37° C. thermostat for one minute. Then 0.07 ml of an ADP or collagen solution is added to the mixture. Transmittance of this mixture is determined and the change of transmittance is recorded by using the aggregometer at stirrer speed of 1,100 r.p.m. In this test, Auren Beronal buffer (pH 7.35) is used for the preparation of the ADP or collagen solution. ADP is adjusted to a concentration of 7.5×10^-5 M, and the collagen solution is prepared by triturating 100 mg of collagen with 5 ml of said buffer and the supernatant is used as collagen inducer. Adenosine and acetylsalicylic acid are used as controls for the ADP-induced aggregation test and the collagen-induced aggregation test, respectively. The platelet aggregation inhibitory effect is measured in terms of percent inhibition with respect to the aggregation rate of the controls. The aggregation rate is calculated from the following formula:
(§4) Aggregation rate=(c-a)/(b-a)×100
(§5) b: transmittance of PRP containing a test compound and an aggregation inducer
(§6) The inhibitory effect of the tested compounds on collagen-induced aggregation in rabbit platelets is shown in Table 1, and such effect on ADP-induced aggregation is shown in Table 2. The compounds tested are as follows.

The test system of data set [3] is rabbit platelet. Kind of data set: Collagen-induced aggregation in rabbit platelets (AG-II Aggregometer). It is filed as cell-based. The note with it: Oryctolagus cuniculus, Platelet, read-out: Inhibition effect on collagen induced aggregation in rabbit platelet; for inhibition at 10 µM (stock): 10^-5 mole; for inhibition at 1 µM (stock): 10^-6 mole; for inhibition at 100 µM (stock): 10^-4 mole; for inhibition at 0.1 µM (stock): 10^-7 mole. Set-up: inhibition: dose or concentration left out as unconfirmed. The protocol: as §1, §2, §3, §4, §5, §6

SMILES strings stand for the structures.

On to `CN(C(=O)CCCOc1ccc2[nH]c(=O)ccc2c1)C1CCC(O)CC1` (stereo not drawn) [compound 2, 6-{3-[N-Methyl-N-(4-hydroxycyclohexyl)aminocarbonyl]propoxy}carbostyril], for which, in data set [1], the LD50 was > 1000 mg/kg. In the data set on rabbit platelet [2], the inhibition at 10 µM (stock) turned out to be 90.3% and the inhibition at 1 µM (stock) turned out to be 54.3%. Also, in the data set on rabbit platelet [3], the inhibition at 10 µM (stock) was found to be 100% and the inhibition at 1 µM (stock) is 89.7%.
On to `COc1ccc(CCN(C)C(=O)CCCOc2ccc3[nH]c(=O)ccc3c2)cc1OC` [compound 4, 6-{3-[N-Methyl-N-(2-3',4'-dimethoxyphenylethyl)aminocarbonyl]propoxy}carbostyril], for which the LD50 in data set [1] is > 1000 mg/kg. For the same compound, in the data set with rabbit platelet [2], the inhibition at 100 µM (stock) was 70.4%, the inhibition at 10 µM (stock) was found to be 16.1% and the inhibition at 1 µM (stock) amounted to 6.9%. Also, in the data set on rabbit platelet [3], the inhibition at 100 µM (stock) stood at 82.9%, the inhibition at 10 µM (stock) came out at 46.5% and the inhibition at 1 µM (stock) stood at 19.2%.
On to `O=C(CCCOc1ccc2[nH]c(=O)ccc2c1)N(Cc1ccccc1)C1CCCCC1` [compound 5, 6-{3-(N-Cyclohexyl-N-benzylaminocarbonyl)propoxy]carbostyril], for which the 50% lethal dose (LD50) in data set [1] is > 1000 mg/kg. In the data set with rabbit platelet [2], the inhibition at 10 µM (stock) is 90.7% and the inhibition at 1 µM (stock) came to 61.2%. The inhibition at 0.1 µM (stock) in the data set on rabbit platelet [2] (10^-7 mole) is 18.9%. Further, in the data set on rabbit platelet [3], the inhibition at 10 µM (stock) is 91.8%, the inhibition at 1 µM (stock) amounted to 88.4% and the inhibition at 0.1 µM (stock) came out at 30.6%.
With `CN(C(=O)CCCOc1ccc2[nH]c(=O)ccc2c1Cl)C1CCCCC1` [compound 6, 5-Chloro-6-[3-(N-methyl-N-cyclohexylaminocarbonyl)propoxy]carbostyril], in data set [1], the median lethal dose (LD50) is > 1000 mg/kg. In the data set on rabbit platelet [2], the inhibition at 100 µM (stock) turned out to be 87.2% and the inhibition at 10 µM (stock) was determined as 5.4%. Besides, in the data set on rabbit platelet [3], the inhibition at 100 µM (stock) amounted to 100%, the inhibition at 10 µM (stock) is 53.3% and the inhibition at 1 µM (stock) was 12.3%.
In the case of `O=C1CCc2cc(OCCCC(=O)N(C3CCCCC3)C3CCCCC3Cl)ccc2N1` (stereo not drawn) [compound 7, 6-{3-[N-Cyclohexyl-N-(2-chlorocyclohexyl)aminocarbonyl]propoxy}-3,4-dihydrocarbostyril], in data set [1], the LD50 was > 1000 mg/kg. The inhibition in the data set on rabbit platelet [2] amounted to 82.9%; in the data set with rabbit platelet [3] it was 89.9%.
With `CN(C(=O)CC(O)COc1ccc2[nH]c(=O)ccc2c1)C1CCCCC1` (stereo not drawn) [compound 8, 6-[2-Hydroxy-3-(N-methyl-N-cyclohexylaminocarbonyl)propoxy]carbostyril], in data set [1], the median lethal dose (LD50) was > 1000 mg/kg. Also, in the data set on rabbit platelet [2], the inhibition at 100 µM (stock) was 91.7% and the inhibition at 10 µM (stock) was 41.1%. Further, in the data set with rabbit platelet [3], the inhibition at 100 µM (stock) stood at 85.5%, the inhibition at 10 µM (stock) stood at 86.8% and the inhibition at 1 µM (stock) is 2.9%.
Turning to `CC(COc1ccc2[nH]c(=O)ccc2c1)CC(=O)N(C)C1CCCCC1` (stereo not drawn) [compound 9, 6-[3-(N-Methyl-N-cyclohexylaminocarbonyl)-2-methylpropoxy]carbostyril], the LD50 in data set [1] was > 1000 mg/kg. In the data set on rabbit platelet [2], the inhibition at 100 µM (stock) came to 92.8%, the inhibition at 10 µM (stock) stood at 70.4% and the inhibition at 1 µM (stock) is 5.8%. For the same compound, in the data set on rabbit platelet [3], the inhibition at 100 µM (stock) was found to be 100%, the inhibition at 10 µM (stock) was 100%, the inhibition at 1 µM (stock) is 100% and the inhibition at 0.1 µM (stock) stood at 11.2%.
On to `CN(C(=O)CCCOc1ccc(O)c2c1CCC(=O)N2)C1CCCCC1` [compound 10, 8-Hydroxy-5-[3-(N-Methyl-N-cyclohexylaminocarbonyl)propoxy]-3,4-dihydrocarbostyril], for which, in data set [1], the LD50 is > 1000 mg/kg. Moreover, in the data set on rabbit platelet [2], the inhibition at 100 µM (stock) came out at 53.9% and the inhibition at 10 µM (stock) is 18.4%. Also, in the data set on rabbit platelet [3], the inhibition at 100 µM (stock) came out at 91.8% and the inhibition at 10 µM (stock) was determined as 29.3%.
For the compound `COc1ccc(CCN(Cc2ccccc2)C(=O)CCCOc2ccc3c(c2)CCC(=O)N3)cc1OC` [compound 11, 6-{3-[N-Benzyl-N-(2-3',4'-dimethoxyphenylethyl)aminocarbonyl]propoxy}-3,4-dihydrocarbostyril], the 50% lethal dose (LD50) in data set [1] is > 1000 mg/kg. In the data set with rabbit platelet [2], the inhibition at 100 µM (stock) turned out to be 87.5%, the inhibition at 10 µM (stock) is 12.5% and the inhibition at 1 µM (stock) was 16.9%. In addition, in the data set on rabbit platelet [3], the inhibition at 100 µM (stock) stood at 88.1%, the inhibition at 10 µM (stock) stood at 75.8% and the inhibition at 1 µM (stock) turned out to be 28.1%.
Turning to `CCN(C(=O)CCCOc1c(Cl)cc(Cl)c2c1CCC(=O)N2)c1ccccc1` [compound 12, 6,8-Dichloro-5-[3-(N-ethylanilinocarbonyl)propoxy]-3,4-dihydrocarbostyril], in data set [1], the LD50 was > 1000 mg/kg. Moreover, in the data set on rabbit platelet [2], the inhibition at 100 µM (stock) was 71.7%, the inhibition at 10 µM (stock) came to 33.8% and the inhibition at 1 µM (stock) was found to be 12.7%. Besides, in the data set with rabbit platelet [3], the inhibition at 100 µM (stock) turned out to be 82.6%, the inhibition at 10 µM (stock) turned out to be 65.2% and the inhibition at 1 µM (stock) stood at 33.8%.
Take `CCOC(=O)C(C)Oc1ccc2c(c1)CCC(=O)N2` (stereo not drawn) [compound 25, 6-(1-Ethoxycarbonylethoxy)-3,4-dihydrocarbostyril, reference compound]: the 50% lethal dose (LD50) in data set [1] was > 1000 mg/kg.
Consider `CCOC(=O)C(C)Oc1ccc2[nH]c(=O)ccc2c1` (stereo not drawn) [compound 26, 6-(1-Ethoxycarbonylethoxy)carostyril, reference compound], for which the LD50 in data set [1] is > 1000 mg/kg.
Still for that read-out and setting: next, `CCOC(=O)C(C)Oc1ccc2c(c1)CCC(=O)N2C` (stereo not drawn) [compound 27, 1-Methyl-6-(1-ethoxycarbonylethoxy)-3,4-dihydrocarbostyril, reference compound]: 800 to 1000 mg/kg.
The same measure, in the same setting: in the case of `CCOC(=O)C(C)Oc1ccc2c(c1)NC(=O)CC2` (stereo not drawn) [compound 28, 7-(1-ethoxycarbonylethoxy)-3,4-dihydrocarbostyril, reference compound] it was > 1000 mg/kg.
For `CCCCCOC(=O)C(C)Oc1ccc2c(c1)CCC(=O)N2` (stereo not drawn) [compound 30, 6-(1-Amyloxycarbonylethoxy)-3,4-dihydrocarbostyril, reference compound], the 50% lethal dose (LD50) in data set [1] is > 1000 mg/kg.
In the case of `CC(C)OC(=O)C(C)Oc1ccc2[nH]c(=O)ccc2c1` (stereo not drawn) [compound 31, 6-(1-Isopropoxycarbonylethoxy)carbostyril, reference compound], in data set [1], the LD50 fell in the range of 900 to 1000 mg/kg.
With `CCOC(=O)CCCOc1cccc2c1CCC(=O)N2` [compound 32, 5-(3-Ethoxycarbonylpropoxy)-3,4-dihydrocarbostyril, reference compound], in data set [1], the LD50 is > 1000 mg/kg.
As for `CCCCCOC(=O)CCCOc1ccc2c(c1)CCC(=O)N2` [compound 33, 6-(3-Amyloxycarbonylpropoxy)-3,4-dihydrocarbostyril, reference compound], in data set [1], the LD50 is > 1000 mg/kg.
For the compound `CCOC(=O)CCCCCCOc1ccc2c(c1)CCC(=O)N2` [compound 35, 6-(6-Ethoxycarbonylhexyloxy)-3,4-dihydrocarbostyril, reference compound], the LD50 in data set [1] was in the range of 750 to 1000 mg/kg.
Regarding `O=C(O)CCCCCCOc1ccc2c(c1)CCC(=O)N2` [compound 36, 6-(6-Carboxyhexyloxy)-3,4-dihydrocarbostyril, reference compound], the LD50 in data set [1] is > 1000 mg/kg.
Same read-out and setting: in the case of `CCOC(=O)C(C)Oc1cccc2c1NC(=O)CC2` (stereo not drawn) [compound 37, 8-(1-Ethoxycarbonylethoxy)-3,4-dihydrocarbostyril, reference compound] it was 900 to 1000 mg/kg.
Turning to `CC(=O)Oc1ccccc1C(=O)O` [compound 46, Aspirin, reference compound], in the data set on rabbit platelet [2], the inhibition at 100 µM (stock) came out at 7% and the inhibition at 10 µM (stock) was 0%. In addition, the inhibition in the data set on rabbit platelet [3] worked out at 9%.
